What was measured:
[1] = test system: rat carotid artery balloon injury model; test: Inhibition of late neointimal lesion formation in the 28 day rat carotid artery balloon injury model; type: in vivo; details: for percent inhibition of neointimal lesion formation: oral, 28 days post-balloon injury
Procedure: A1. Inhibition of Late Neointimal Lesion Formation in the 28 Day Rat Carotid Artery Balloon Injury Model
Compounds of formula I are tested in the following rat model.
Rats are dosed orally with placebo or a compound of formula I. Daily dosing starts 3 days prior to surgery and continues for 31 days. Rat carotid arteries are balloon injured using a method described by Clowes et al. Lab. Invest. 1983; 49; 208-215. Following sacrifice at 28 days post-balloon injury, carotid arteries are removed and processed for histologic and morphometric evaluation. […] For example for 40-O-(2-hydroxyethyl)-rapamycin administered at 0.5, 1.0, and 2.0 mg/kg, the percent inhibition is similar at all three doses: inhibition is 31% at the lowest dose (0.5 mg/kg) and 39% at the highest dose (2.0 mg/kg). Compounds of formula I, e.g. 40-O-(2-hydroxyethyl)-rapamycin, have the beneficial effect to inhibit lesions at 4 weeks post-ballooning.

[2] = test system: New Zealand White rabbit iliac arteries; test: Inhibition of restenosis at 28 days in the rabbit iliac stent model; type: in vivo
Procedure: A.2 Inhibition of Restenosis at 28 Days in the Rabbit Iliac Stent Model
A combined angioplasty and stenting procedure is performed in New Zealand White rabbit iliac arteries. Iliac artery balloon injury is performed by inflating a 3.0×9.0 mm angioplasty balloon in the mid-portion of the artery followed by “pull-back” of the catheter for 1 balloon length. Balloon injury is repeated 2 times, and a 3.0×12 mm stent is deployed at 6 atm for 30 seconds in the iliac artery. Balloon injury and stent placement is then performed on the contralateral iliac artery in the same manner. A post-stent deployment angiogram is performed. All animals receive oral aspirin 40 mg/day daily as anti-platelet therapy and are fed standard low-cholesterol rabbit chow. Twenty-eight days after stenting, animals are anesthetized and euthanized and the arterial tree is perfused at 100 mmHg with lactated Ringer's for several minutes, then perfused with 10% formalin at 100 mmHg for 15 minutes. The vascular section between the distal aorta and the proximal femoral arteries is excised and cleaned of periadventitial tissue. The stented section of artery is embedded in plastic and sections are taken from the proximal, middle, and distal portions of each stent. All sections are stained with hematoxylin-eosin and Movat pentachrome stains. Computerized planimetry is performed to determine the area of the internal elastic lamina (IEL), external elastic lamina (EEL) and lumen. The neointima and neointimal thickness is measured both at and between the stent struts. The vessel area is measured as the area within the EEL. Data are expressed as mean ±SEM. Statistical analysis of the histologic data is accomplished using analysis of variance (ANOVA) due to the fact that two stented arteries are measured per animal with a mean generated per animal. A P<0.05 is considered statistically significant.
A compound of formula I, e.g. 40-O-(2-hydroxyethyl)-rapamycin, is administered orally by gavage at a loading dose of 1.5 mg/kg one day prior to stenting, then dosed at 0.75 mg/kg/day from the day of stenting until day 27 post-stenting. In this model, the treatment with the compounds of formula I results in a marked reduction in the extent of restenotic lesion formation: for example, the treatment with 40-O-(2-hydroxyethyl)-rapamycin produces a significant (P<0.03) reduction in neointimal thickness (40% reduction), neointimal area (24% reduction), and percent arterial stenosis (26% reduction) with a significant 32% increase in lumen area. There is extensive neointimal formation in placebo-treated animals at 28 days, with the lesions consisting of abundant smooth muscle cells in proteoglycan/collagen matrix and apparent full endothelial healing.

[3] = test system: dialysis patients; test: Prevention or reduction of vascular access dysfunction after insertion of an indwelling catheter in dialysis patients; type: in vivo, human; details: daily dose 0.75 to 20 mg, 3 month treatment, observation period 6 months
Procedure: A5. Prevention or Reduction of Vascular Access Dysfunction in Association with the Insertion of an Indwelling Catheter into the Vein of a Patient
One hundred fifty prospective dialysis patients, who undergo successful insertion of an indwelling, large bore catheter, into a vein are selected for the study. […] In addition, patients may also be given a calcium antagonist, nitrates and/or anti-platelet agents. These drugs are administered for 3 consecutive months following catheter insertion.

[4] = test system: ballooned carotid of Sprague Dawley rats; test: Inhibition of restenosis at 14 days in the rat carotid stent model, perivascular local delivery; type: in vivo; details: local perivascular administration, 10 to 200 μg/day
Procedure: A.3 Inhibition of Restenosis at 14 Days in the Rat Carotid Stent Model
Male Sprague Dawley rats weighing […] are housed individually and allowed to acclimate prior to surgery. All animals receive standard rat chow and water ad libitum. Group size is 12 animals per group.
The drug(s) administration is perivascular. A segment of ballooned carotid is encircled with a 1 cm length of silastic tubing (0.25 inch inside diameter, 0.47 inch outside diameter) to which is attached a catheter which feeds into an osmotic pump containing either compound or vehicle. This delivery system provides continuous, local delivery to the adventitia of the wrapped portion of vessel. Local drug(s) administration ranges between 5 μg and 10 mg, locally per day, depending on the solubility characteristics of the individual compounds. […]
Animals are killed at 14 days post-balloon injury. […] Animals are killed by administration of an overdose of ketamine and rompun, the osmotic pumps are recovered and the volume of remaining content is recorded to ensure that pump failure has not occurred.
Carotid, arteries are excised and immersion fixed, then transferred to Ringer's solution. […] The intimal lesion area and the medial area are determined by measurement of the internal elastic lamina, the external elastic lamina and the vessel/lumen interface.

[5] = Release of drug from coated stents in PBS or PEG/water; type: physicochemical; details: PBS pH 7.4 or PEG 400/water 40/60 v/v, 37° C., stable = less than 10% of variation of the drug release
Procedure: Four 2 cm pieces of coated stents as described above are placed into 100 ml of phosphate buffer solution (PBS) having a pH of 7.4. Another 4 pieces from each series are placed into 100 ml polyethylene glycol (PEG)/water solution (40/60 v/v, MW of PEG=400). The stent pieces are incubated at 37° C. in a shaker. The buffer and PEG solutions are changed daily and different assays are performed on the solution to determine the released 40-O-(2-hydroxyethyl)-rapamycin concentrations. Such assays can show a stable release of 40-O-(2-hydroxyethyl)-rapamycin from coated stents for more than 45 days. By the term “stable release of 40-O-(2-hydroxyethyl)-rapamycin” is meant less than 10% of variation of the drug release. Controlled release techniques used by a person skilled in the art allow an unexpected easy adaptation of the required drug release rate. Thus, by selecting appropriate amounts of reactants in the coating mixture it is possible to easily control the bioeffectiveness of the rapamycin or rapamycin derivastive coated stents.

[6] = oral gavage, loading 1.5 mg/kg then 0.75 mg/kg/day to day 27, 28 days post-stenting, P<0.03

**Q.** Which “neointimal lesion formation at 28 days following balloon injury” value ([1]; oral daily dosing from 3 days prior to surgery for 31 days, 0.5 to 2.0 mg/kg) does the source give for CO[C@H]1C[C@@H]2CC[C@@H](C)[C@@](O)(O2)C(=O)C(=O)N2CCCC[C@H]2C(=O)O[C@H]([C@H](C)C[C@@H]2CC[C@@H](OCCO)[C@H](OC)C2)CC(=O)[C@H](C)/C=C(\C)[C@@H](O)[C@@H](OC)C(=O)[C@H](C)C[C@H](C)/C=C/C=C/C=C/1C [40-O-(2-hydroxyethyl)-rapamycin] here?
**A.** The value was “significantly reduce neointimal lesion formation”.

**Q.** And the “percent inhibition of neointimal lesion formation” value ([1]; 0.5 mg/kg)?
**A.** The value was 31%.

**Q.** What about the “percent inhibition of neointimal lesion formation” value ([1]; 2.0 mg/kg) of the same molecule?
**A.** Its value is 39%.

**Q.** What about the “histology of the intima of stented arterial segments” value ([2]; majority of arterial segments, 28 days post-stenting) of the same molecule?
**A.** Its value is “the intima is well healed”.

**Q.** And the “endothelialization of stented arteries (scanning electron microscopic analysis)” value ([2]; n=4 arteries, 28 days post-stenting)?
**A.** Its value is 84%.

**Q.** And the “increase in lumen area” value ([2]; oral gavage, loading 1.5 mg/kg then 0.75 mg/kg/day to day 27, 28 days post-stenting)?
**A.** The value was 32%.

**Q.** And the “reduction in neointimal area” value [2, 6]?
**A.** Its value is 24%.

**Q.** What about the “reduction in neointimal thickness” value [2, 6] of the same molecule?
**A.** Its value is 40%.

**Q.** What about the “reduction in percent arterial stenosis” value [2, 6] of the same molecule?
**A.** Its value is 26%.

**Q.** And the “prevention or reduction of vascular access dysfunction” value [3]?
**A.** Its value is “demonstrate the efficacy”.

**Q.** And the “neointimal lesion formation at 14 days post ballooning” value [4]?
**A.** The value was “reduces neointimal lesion formation”.

**Q.** And the “duration of stable release from coated stents” value [5]?
**A.** The value was “more than 45 days”.

From patent US20090036352A1, “DRUG DELIVERY SYSTEMS FOR THE PREVENTION AND TREATMENT OF VASCULAR DISEASES COMPRISING RAPAMYCIN AND DERIVATIVES THEREOF” (priority 2002, published 2009)
